Test results reported in patent publication US6458781B1, “Substituted diarylalkyl amides as calcium channel antagonists” (priority 1998, dated 2002).
Structures can show the parent of a compound that is named as a salt. Where two headings read alike, the source gives them in different places.

Columns and labels:
[1] = tested on: sound-induced tonic convulsions in DBA/2 mice; experiment: Audiogenic seizure model in DBA/2 mice; assay type: in vivo; details: Mus musculus, protected/tested, read-out: Number of Mice Protected From Tonic Convulsions (converted); for responders at 30 mg/kg: 30 mg/Kg IV; for responders at 3 mg/kg: 3 mg/Kg IV; for responders at 10 mg/kg: 10 mg/Kg IV
Experimental: Audiogenic Seizure Model in DBA/2 Mice
A compound of the present invention was dissolved in water using 10% (weight/volume) Emulphor (GAF Corp., Wayne, N.J.) surfactant. Substances were administered by intravenous injection into the retro-orbital venous sinus of male mice (3-4 weeks old, Jackson Laboratories, Bar Harbour, Me.). All testing was preformed 15 minutes or 45 minutes after drug injection. Immediately before anticonvulsant testing, mice were placed upon a wire mesh, 4 inches square suspended from a steel rod. The square was slowly inverted through 180 degrees and mice observed for 30 seconds. Any mouse falling from the wire mesh was scored as ataxic.
Mice were placed into an enclosed acrylic plastic chamber (21 cm height, approximately 30 cm diameter) with a high-frequency speaker (4 cm diameter) in the center of the top lid. An audio signal generator (Protek model B-810) was used to produce a continuous sinusoidal tone that Was swept linearly in frequency between 8 kHz and 16 kHz once each 10 msec. The average sound pressure level (SPL) during stimulation was approximately 100 dB at the floor of the chamber. Mice were placed within the chamber and allowed to acclimatize for 1 minute. DBA/2 mice in the vehicle-treated group responded to the sound stimulus (applied until tonic extension occurred, or for a maximum of 60 sec) with a characteristic seizure sequence consisting of wild running followed by clonic seizures, and later by tonic extension, and finally by respiratory arrest and death in 80% or more of the mice. In vehicle-treated mice, the entire sequence of seizures to respiratory arrest lasts approximately 15-20 seconds.
The incidence of all the seizure phases in the drug-treated and vehicle-treated mice was recorded, and the occurrence of tonic seizures were used for calculating anticonvulsant ED50 values by probit analysis. Mice were used only once for testing at each time and dose point.

[2] = tested on: K+ channels in SCG neurons; experiment: Potassium current in superior cervical ganglion neurons (whole-cell voltage clamp); assay type: cell-based, rat
Experimental: Electrophysiological techniques were used to measure the effects of experimental compounds on voltage-gated Ca^2+, […] , and K^+ channels. […] Sodium and potassium channel currents were measured from acutely dissociated SCG neurons.
Dissociation of the neurons from the ganglia was accomplished using a 30 to 45 minute treatment in 0.25% trypsin, similar to methods outlined in Higgins, et al. (see Higgins D. et al. “Tissue culture of mammalian autonomic neurons.” In Banker G. and Goslin K. (Eds), Culturing Nerve Cells, Cambridge, Mass., MIT Press [1991]).
Ca^2+, Na^+, and K^+ channel currents in SCG neurons were measured using conventional single electrode whole-cell voltage-clamp techniques, outlined in Hamill et al., (see Hamill O. P. et al. “Improved patch-clamp techniques for high resolution current recordings from cells and cell-free membrane patches.”Pflugers Arch., 1981;391:85-100). For Ca^2+ channel experiments, the external bathing solution contained tetraethylammonium chloride (100 mM), choline chloride (52 mM), NaCl (15 mM), HEPES (10 mM), glucose (5.6 mM), CaCl2 (2 mM), and MgCl2 (0.8 mM), pH 7.35 with KOH; with the internal pipette solution containing cesium methane sulfonate (140 mM), EGTA (10 mM), and HEPES (10 mM), supplemented with 5 mM Mg^2+-ATP on the day of the experiment, pH 7.4 with CsOH. For Na^+ and K^+ channel experiments, the external bathing solution contained NaCl (150 mM), KCl (5 mM), MgCl2 (1.1 mM), CaCl2 (2.6 mM), Na-HEPES (10 mM), and glucose (10 mM), pH 7.4; with the internal pipette solution containing KCl (80 mM), K-gluconate (50 mM), HEPES (10 mM), and EGTA (10 mM), pH 7.4 with KOH. Experimental compounds were diluted into the external solution and applied to the soma of cells by local perfusion from large diameter (20-50 μm) glass micropipettes or from a U-tube applicator.
For Na^+ and K^+ channel currents, following the determination of the I/V relationship for each cell in control solution, currents were evoked from a holding potential between −65 and −55 mV by stepping every 10 sec to a test potential of either 0 mV for Na^+ or +50 mV for K^+ current for a duration of 35 msec. Peak inward current was measured for Na^+ and sustained current for K^+ channel currents. […] Test compounds were applied until steady-state block was achieved. Data were expressed as percent inhibition of control amplitudes for Na^+ and K^+ channel currents.

Row | IC50 [2] [µM] | SMILES | responders at 30 mg/kg ([1]; 0.25 h, 15 min posttreatment) [%] | responders at 30 mg/kg ([1]; 0.75 h, 45 min posttreatment) [%] | SCG K, % blockage at 10 μM [2] [% @ 10] | responders at 3 mg/kg ([1]; 0.25 h, 15 min posttreatment) [%] | responders at 10 mg/kg ([1]; 0.25 h, 15 min posttreatment) [%] | responders at 3 mg/kg ([1]; 0.75 h, 45 min posttreatment) [%] | responders at 10 mg/kg ([1]; 0.75 h, 45 min posttreatment) [%] | SCG K, % blockage at 1 μM [2] [% @ 1]
1 | – | CC(C)C[C@H](N)C(=O)NCCCC(c1ccc(F)cc1)c1ccc(F)cc1 [Example 7, (S)-2-Amino-4-methyl-pentanoic acid [4,4-bis-(4-fluoro-phenyl)-butyl]-amide monohydrochloride] | 80 | 80 | 90 | – | – | – | – | –
2 | – | CC(C)C[C@H](NCC1CCCCC1)C(=O)NCCCC(c1ccc(F)cc1)c1ccc(F)cc1 [Example 8, (S)-2-(Cyclohexylmethyl-amino)-4-methyl-pentanoic acid [4,4-bis-(4-fluoro-phenyl)-butyl]-amide monohydrochloride] | 100 | 100 | 50 | 0 | 80 | 0 | 40 | –
3 | 9.1 | CC(C)=CCN[C@@H](CC(C)C)C(=O)NCCCC(c1ccc(F)cc1)c1ccc(F)cc1 [Example 9, (S)-4-Methyl-2-(3-methyl-but-2-enylamino)-pentanoic acid [4,4-bis-(4-fluoro-phenyl)-butyl]-amide monohydrochloride] | 100 | 100 | – | 60 | 100 | 0 | 60 | –
4 | – | CN[C@@H](CC(C)C)C(=O)NCCCC(c1ccc(F)cc1)c1ccc(F)cc1 [Example 12, (S)-4-Methyl-2-methylamino-pentanoic acid [4,4-bis-(4-fluoro-phenyl)-butyl]-amide monohydrochloride] | 100 | 80 | 58 | – | – | – | – | 15
5 | – | CC(C)C[C@@H](C(=O)NCCCC(c1ccc(F)cc1)c1ccc(F)cc1)N(C)Cc1ccc(C(C)(C)C)cc1.Cl [Example 14, (S)-2-[(4-tert-Butyl-benzyl)-methyl-amino]-4-methyl-pentanoic acid [4,4-bis-(4-fluoro-phenyl)-butyl]-amide monohydrochloride] | – | – | −1 | – | – | – | – | –
6 | – | CC(C)CCN(C)[C@@H](CC(C)C)C(=O)NCCCC(c1ccc(F)cc1)c1ccc(F)cc1 [Example 28, (S)-4-Methyl-2-[methyl-(3-methyl-butyl)-amino]-pentanoic acid [4,4-bis-(4-fluoro-phenyl)-butyl]-amide monohydrochloride] | 80 | 100 | 47 | – | – | – | – | 3
7 | – | CC(C)C[C@H](NC(=O)N1CCCCCC1)C(=O)N1CCN(C(c2ccc(F)cc2)c2ccc(F)cc2)CC1 [Example 31, (S)-Azepane-1-carboxylic acid (1-{4-[bis-(4-fluoro-phenyl)-methyl]-piperazine-1-carbonyl}-3-methyl-butyl)-amide] | 0 | 0 | – | – | – | – | – | –
8 | – | CC(C)[C@H](NC(=O)N1CCCCCC1)C(=O)N1CCN(C(c2ccc(F)cc2)c2ccc(F)cc2)CC1 [Example 33, (S)-Azepane-1-carboxylic acid (1-{4-[bis-(4-fluoro-phenyl)-methyl]-piperazine-1-carbonyl}-2-methyl-propyl)-amide] | 0 | 0 | 39 | – | – | – | – | –
9 | – | CC(C)C[C@@H](CN1CCN(C(c2ccc(F)cc2)c2ccc(F)cc2)CC1)NC(=O)N1CCCCCC1 [Example 36, (S)-Azepane-1-carboxylic acid (1-{4-[bis-(4-fluoro-phenyl)-methyl]-piperazin-1-ylmethyl}-3-methyl-butyl)-amide] | – | – | 27 | – | – | – | – | –
10 | – | CC(C)C[C@@H](C(=O)N1CCN(C(c2ccc(F)cc2)c2ccc(F)cc2)CC1)N(C)C [Example 39, (S)-1-{4-[Bis-(4-fluoro-phenyl)-methyl]-piperazin-1-yl}-2-dimethylamino-4-methyl-pentan-1-one dihydrochloride] | – | – | – | – | – | – | – | 6
